Measurements reported in the supplement of paper PMC10307832.

Legend:
Experiment in all cases: relative viability (nuclei count vs DMSO), 5 days (fraction); higher = more cells survive
[1] = compound: Cc1ccc(C(=O)Nc2cccc(C(F)(F)F)c2)cc1Nc1cncc(C(N)=O)c1 [ALW-II-49-7] + CCNC(=O)c1noc(-c2cc(C(C)C)c(O)cc2O)c1-c1ccc(CN2CCOCC2)cc1 [Luminespib] (partner 0.01 µM)
Procedure, shortened: (§1)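 Lung cancer cell lines, seeded in 1536-well plates, were treated the following day by pin tool with a single drug or with five library-drug doses (not always all listed) in √10 steps on top of a fixed anchor-drug dose. Cells were fixed and nuclei stained in one step after 5 days, and nuclei were counted. Relative viability is the nuclei count for treated wells divided by that for vehicle wells, reported as medians of duplicate plates.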

[2] = compound: C1CC1C(=O)NC2=NNC3=C2C=CC(=C3)C4=CC(=CC=C4)C(=O)NC5CC5 [XMD13-2] + CS(=O)(=O)N1CCN(Cc2cc3nc(-c4cccc5[nH]ncc45)nc(N4CCOCC4)c3s2)CC1 [Pictilisib] (partner 1 µM)
Procedure, shortened: as §1

[3] = compound: Cc1nc(Nc2ncc(C(=O)Nc3c(C)cccc3Cl)s2)cc(N2CCN(CCO)CC2)n1 [Dasatinib] + CS(=O)(=O)CCNCc1ccc(-c2ccc3ncnc(Nc4ccc(OCc5cccc(F)c5)c(Cl)c4)c3c2)o1 [Lapatinib] (partner 2 µM)
Procedure, shortened: as §1

[4] = compound: C1CC1C(=O)NC2=NNC3=C2C=CC(=C3)C4=CC(=CC=C4)C(=O)NC5CC5 [XMD13-2] + COc1cc2c(Oc3ccc(NC(=O)C4(C(=O)Nc5ccc(F)cc5)CC4)cc3F)ccnc2cc1OCCCN1CCOCC1 [Foretinib] (partner 0.25 µM)
Procedure, shortened: as §1

Cell Line	relative viability ([1]; first compound 0.08 µM)	relative viability ([1]; first compound 0.253 µM)	relative viability ([1]; first compound 0.8 µM)	relative viability ([1]; first compound 2.53 µM)	relative viability ([1]; first compound 8 µM)	relative viability ([2]; first compound 0.05 µM)	relative viability ([2]; first compound 0.1581 µM)	relative viability ([2]; first compound 0.5 µM)	relative viability ([2]; first compound 1.581 µM)	relative viability ([2]; first compound 5 µM)	relative viability ([3]; first compound 0.005 µM)	relative viability ([3]; first compound 0.01581 µM)	relative viability ([3]; first compound 0.05 µM)	relative viability ([3]; first compound 0.1581 µM)	relative viability ([3]; first compound 0.5 µM)	relative viability ([4]; first compound 0.05 µM)	relative viability ([4]; first compound 0.1581 µM)	relative viability ([4]; first compound 0.5 µM)	relative viability ([4]; first compound 1.581 µM)	relative viability ([4]; first compound 5 µM)
NCI-H1993	0.701	0.705	0.95	0.793	1.14	0.846	0.783	0.781	0.937	0.845	0.761	0.771	0.776	0.731	0.737	0.838	0.689	0.775	0.785	0.507
NCI-H661	1.04	1.01	0.913	0.976	0.998	0.469	0.529	0.421	0.344	0.383	0.295	0.29	0.276	0.318	0.234	1	1.06	1.04	1.02	0.875
NCI-H520	0.219	0.216	0.232	0.206	0.237	0.318	0.299	0.313	0.275	0.251	0.729	0.447	0.464	0.228	0.21	0.876	0.754	0.536	0.637	0.402
NCI-H2085	0.405	0.465	0.445	0.4	0.44	0.828	0.445	0.444	0.444	0.481	0.666	0.624	0.417	0.199	0.182	0.971	0.943	0.963	0.857	0.923
NCI-H1651	0.637	0.802	0.801	0.644	0.876	0.819	0.477	0.661	0.64	0.548	0.864	0.573	0.648	0.625	0.489	0.866	0.808	0.799	0.744	0.827
RERF-LC-KJ	1.56	1.18	1.68	1.39	1.15	0.57	0.558	0.435	0.571	0.5	0.819	0.758	0.84	0.813	0.809	0.871	0.869	0.87	0.795	0.844
NCI-H1755	0.341	0.497	0.421	0.283	0.268	0.548	0.411	0.48	0.315	0.496	0.957	0.714	0.749	0.622	0.246	1.04	0.871	0.939	0.86	0.937
SK-MES-1	0.591	0.797	0.8	0.864	0.719	0.408	0.422	0.333	0.365	0.349	0.467	0.482	0.399	0.315	0.258	0.866	0.967	1.06	0.87	1.15
NCI-H2126	0.938	0.932	0.855	0.803	0.868	0.508	0.448	0.503	0.518	0.502	0.748	0.584	0.669	0.525	0.328	1.16	1.18	1.16	1.29	1.1
EPLC-272H	0.218	–	0.324	0.312	0.276	0.349	0.271	0.271	0.23	0.187	0.866	0.913	0.938	0.79	0.346	0.71	0.629	0.644	0.568	0.187
NCI-H1975	0.431	0.165	0.235	0.292	0.198	0.319	0.3	0.333	0.322	0.325	0.779	0.701	0.595	0.419	0.23	1.06	0.939	0.96	0.978	0.982
NCI-H3122	0.0922	0.0773	0.124	0.102	0.195	0.655	0.598	0.585	0.662	0.505	0.999	1.02	1.02	1.01	0.84	0.966	0.949	1.05	0.977	0.939
COR-L 105	0.745	0.646	0.845	0.72	0.879	0.398	0.361	0.437	0.458	0.335	0.352	0.301	0.28	0.256	0.318	1.16	1.19	0.729	0.883	0.899
BEN	0.682	0.458	0.509	0.521	0.24	0.663	0.535	0.585	0.562	0.523	0.617	0.362	0.432	0.312	0.336	0.802	0.829	0.654	0.53	0.737
